For one experiment, the system named is MCP-1. The experiment is described as follows: MCP-1 chemokine secretion by TNFα-stimulated primary human hepatic stellate cells (ELISA). Type of experiment: cell-based. The following applies: for MCP-1 chemokine secretion, per-cell normalized, fold change from plasma amino acid background: primary human hepatic stellate cells, two donors, TNFα 3 ng/mL, 12 hours. How it is done:
Primary human hepatic stellate cells were obtained from Samsara Sciences and grown in Complete HSC Medium to […] confluence in T75 or T150 flasks below passage 10 were seeded into 96-well plates and incubated for 6 hours at 37° C., 5% CO2 in a humidified incubator. After 6 hours, plates were removed from the incubator washed with DPBS and pretreated (±single amino acid dropout, ±supplemental amino acid dose; see experiment for medium composition) overnight, ˜14-15 hours. After overnight pretreatment, the medium was removed from the cells, and the same pretreatment medium, now supplemented with 3 ng/mL TNFα was applied. Plates were incubated for 12 hours at 37° C., 5% CO2. After 12 hour stimulus with TNFα, supernatant was removed and frozen at −80° C. in two separate aliquots. Plates were washed and incubated with CCK-8 viability reagent (Dojindo) for 1 hour. Viability was measured on the Synergy plate reader. Immediately, the medium was removed and the plates were fixed for immunofluorescence staining.
Human CCL2/MCP1 and Human IL-6 were measured by ELISA (Human […] DuoSet ELISA, R&D Systems; Human IL-6 DuoSet ELISA, R&D Systems) at ⅕ and 1/20 dilution in 1× Reagent Diluent (Reagent Ancillary Kit 2, R&D Systems). Data were normalized to the specific per well cell density determined by Hoechst stained nuclei count.
Tables 35-38 show per-cell normalized MCP-1 chemokine secretion in primary human hepatic stellate cells from two donors as a fold change from the plasma amino acid background. Statistical significance calculated by one-way ANOVA with Dunnett's multiple comparison test within each treatment group.

The test system of another experiment is TNFα. The experiment can be described thus: LPS-induced TNFα secretion in primary human monocyte-derived macrophages (ELISA). Type of experiment: cell-based. The arrangement: TNFa Measurements Mean: unit not given here. The following applies: for TNFa Measurements Mean: Donor 1, LPS 0.15 ng/mL; for TNFa Measurements Mean / Donor 2 TNFa Measurements Mean / Donor 3 TNFa Measurements Mean: baseline subtracted; for LPS-induced TNFα secretion: macrophages, 0.15 ng/mL LPS. How it is done: Unpurified buffy coats (Research Blood Components) were carefully poured into 50 mL centrifuge tubes and diluted with room temperature Dulbecco's Phosphate Buffered Saline (dPBS) with Calcium and Magnesium (Gibco). Diluted buffy coats were further divided into four total 50 mL centrifuge tubes at 20 mL per tube. Lymphocyte Separation Medium (Corning) was carefully pipetted to the bottom of each centrifuge tube. Mixtures were centrifuged at 850× g for 32 minutes at 20° C. with 0 deceleration and acceleration.
The PBMC layer was separated from other components after centrifugation and added to new 50 mL centrifuge tube containing 25 mL dPBS. Total volume was brought up to 50 mL with dPBS and centrifuged at 600×g for 10 minutes at 20° C. with acceleration of 9, deceleration of 5. Supernatant was carefully removed from cell pellets. The cell pellets were resuspended using 10 mL dPBS. Total volume was then brought up to 50 mL using dPBS and centrifuged at 450×g for 5 min at 20° C. with acceleration of 9, deceleration of 9. The supernatant removal and cell pellet resuspension was repeated again.
The supernatant was then carefully removed from cell pellets. Cell pellets were resuspended in 10 mL dPBS without calcium or magnesium and filtered through a 70 uM cell strainer. The total PBMC number was determined using a Cellometer K2 automated cell counter. A total of 5E6 cells were saved for flow cytometric analysis. Remaining cells were centrifuged at 490×g for 5 minutes at 20° C. with acceleration of 9, deceleration of 9.
CD14+ cells were selected using EasySep™ Human CD14 Positive Selection Kit II ([…] Technologies). Cells were resuspended in cold EasySep™ Buffer ([…] Technologies) at 1×10^8 cells/mL. A total of 100 uL/mL EasySep™ Human CD14 Positive Selection Cocktail II was added to the cell suspension, mixed, and incubated at room temperature for 10 minutes. A total of 100 uL/mL RapidSpheres were added to the mixture and incubated at room temperature for 3 minutes after mixing, then RoboSep buffer was added to bring up the total volume to 10 mL. The mixture in a 15 mL tube was placed in magnet and incubated at room temperature for 3 minutes. Supernatant was discarded and 10 mL fresh EasySep™ buffer was added to 15 mL tube. The addition of RoboSep buffer, mixing, and discarding of supernatant was repeated two more times.
Negative and positive fractions were centrifuged at 490×g for 5 minutes at 20° C. with acceleration of 9, deceleration of 9, and resuspended in DMEM (Gibco) and 10% Heat Inactivated Fetal Bovine Serum (Atlanta Bio) and Penicillin/Streptomycin. Cells were counted and centrifuged again at 490× g for 5 minutes at 20° C. with acceleration of 9, deceleration of 9. After centrifugation, cell were resuspended in DMEM (Gibco) and 10% Heat Inactivated Fetal Bovine Serum (Atlanta Bio) and Penicillin/Streptomycin containing 500 U/mL […] and plated at 1-2×10^6 cells/mL on 10 cm tissue culture plates. Cells were kept in 37° C., 5% CO2 in between feedings/harvest.
Cells were fed every 3-4 days by removing media and unattached cells, centrifuging at 490× g for 5 minutes at 20° C. with acceleration of 9, deceleration of 9, and resuspending in fresh DMEM (Gibco) and 10% Heat Inactivated Fetal Bovine Serum (Atlanta Bio) and Penicillin/Streptomycin containing GM-CSF. Resuspended cells were seeded back onto 10 cm tissue culture plates and incubated at 37° C., 5% CO2. Differentiated macrophages were used for subsequent experiments.
Primary human PMBC derived macrophages were seeded on day 0 at 3.0E4 cells per well in 96-well microplates (ThermoFisher) in Dulbecco's Modified Eagle Medium (DMEM) (Gibco) supplemented with penicillin-streptomycin (Hyclone) and 10% heat inactivated fetal bovine serum (HI-FBS) (Atlanta Bio) and incubated overnight at 37° C., 5% CO2. On day 1, cells were washed once with 150 uL per well DPBS (Gibco) and treated with 75 uL of: • a. […]
In general terms: An ELISA detects its analyte on a solid surface through an enzyme-linked reagent.

These results are taken from patent US20210260010A1, “COMPOSITIONS AND METHODS FOR THE REDUCTION OR TREATMENT OF INFLAMMATION” (AXCELLA HEALTH INC., priority 2018, published 2021).

Regarding `N=C(N)NCCC[C@H](N)C(=O)O` [Arginine, L-Arginine], the “Fold Change MCP1 Secretion Normalized Per Cell” value in the experiment with MCP-1 (donor 3, Conc. 109 μM (plasma background, reference)) is 1.0000; in the experiment on MCP-1 (donor 3, Conc. 1088 μM), 0.9435; in the experiment on MCP-1 (donor 3, Conc. 2720 μM) it was 0.8821; with MCP-1 (donor 3, Conc. 5440 μM) it was 0.7840; in the experiment with MCP-1 (donor 4, Conc. 109 μM (plasma background, reference)) it was 1.0000; in the experiment on MCP-1 (donor 4, Conc. 1088 μM) it was 1.0453. The “Fold Change MCP1 Secretion Normalized Per Cell” value was 1.0446 in the experiment on MCP-1 (donor 4, Conc. 2720 μM) and 0.9456 in the experiment on MCP-1 (donor 4, Conc. 5440 μM). Also, in the experiment on MCP-1, the “MCP-1 chemokine secretion, per-cell normalized, fold change from plasma amino acid background” value was “no significant impact”. Moreover, the “TNFa Measurements Mean” value is listed as 0 with TNFα (Conc. 109 μM (baseline)), −24.33 in the experiment on TNFα (Conc. 1088 μM), 5.12 with TNFα (Conc. 2720 μM) and 62.06 in the experiment with TNFα (Conc. 5440 μM). The “Donor 2 TNFa Measurements Mean” value was 1.42E−14 in the experiment with TNFα (Donor 2, Conc. 109 μM (baseline)); −12.7222 with TNFα (Donor 2, Conc. 1088 μM); −3.763 in the experiment on TNFα (Donor 2, Conc. 2720 μM); −0.5738 with TNFα (Donor 2, Conc. 5440 μM). In addition, the “Donor 3 TNFa Measurements Mean” value was 3.55E−15 in the experiment on TNFα (Donor 3, Conc. 109 μM (baseline)); 3.131 in the experiment on TNFα (Donor 3, Conc. 1088 μM); −0.9669 in the experiment on TNFα (Donor 3, Conc. 2720 μM); −1.767 in the experiment with TNFα (Donor 3, Conc. 5440 μM).
On to `NC(=O)CC[C@H](N)C(=O)O` [Glutamine, L-Glutamine], for which the “Fold Change MCP1 Secretion Normalized Per Cell” value in the experiment with MCP-1 (donor 3, Conc. 562 μM (plasma background, reference)) is 1.0000; in the experiment on MCP-1 (donor 3, Conc. 749 μM) it was 0.7048; in the experiment on MCP-1 (donor 3, Conc. 3747 μM), 0.6036; in the experiment on MCP-1 (donor 3, Conc. 11242 μM), 0.6106; in the experiment with MCP-1 (donor 3, Conc. 22484 μM), 0.6212; in the experiment on MCP-1 (donor 4, Conc. 562 μM (plasma background, reference)), 1.0000. Further, in the experiment on MCP-1, the “MCP-1 chemokine secretion, per-cell normalized, fold change from plasma amino acid background” value is recorded as “reduced MCP1 secretion in both donors but was only statistically significant in one of two donors”. Moreover, the “TNFa Measurements Mean” value with TNFα (Conc. 749 μM (baseline)) is 0; with TNFα (Conc. 3747 μM) it was −45.7; with TNFα (Conc. 11242 μM), −65.24; with TNFα (Conc. 22484 μM) it was −103.07. Further, the “Donor 2 TNFa Measurements Mean” value with TNFα (Donor 2, Conc. 749 μM (baseline)) is −9.5E−15; in the experiment with TNFα (Donor 2, Conc. 3747 μM) it was 9.338; in the experiment on TNFα (Donor 2, Conc. 11242 μM), 20.04; with TNFα (Donor 2, Conc. 22484 μM), 11.5. The “Donor 3 TNFa Measurements Mean” value in the experiment on TNFα (Donor 3, Conc. 749 μM (baseline)) came to 0; with TNFα (Donor 3, Conc. 3747 μM) it was 1.936; with TNFα (Donor 3, Conc. 11242 μM), 18; in the experiment on TNFα (Donor 3, Conc. 22484 μM) it was 29.14. Besides, the “LPS-induced TNFα secretion” value in the experiment on TNFα (Donor 2) and in the experiment with TNFα (Donor 3) was “increased” in each case.
As to `CC[C@H](C)[C@H](N)C(=O)O` [Isoleucine, L-Isoleucine], the “Fold Change MCP1 Secretion Normalized Per Cell” value came out at 1.0000 in the experiment with MCP-1 (donor 3, Conc. 66 μM (plasma background, reference)); 1.5550 in the experiment with MCP-1 (donor 3, Conc. 1328 μM); 1.2169 with MCP-1 (donor 3, Conc. 3320 μM); 1.2084 with MCP-1 (donor 3, Conc. 6639 μM); 1.0000 with MCP-1 (donor 4, Conc. 66 μM (plasma background, reference)). The “TNFa Measurements Mean” value is 0 with TNFα (Conc. 66 μM (baseline)), −42.68 with TNFα (Conc. 1328 μM), −96.3 in the experiment with TNFα (Conc. 3320 μM) and −40.95 in the experiment on TNFα (Conc. 6639 μM). Further, the “Donor 2 TNFa Measurements Mean” value was 4.74E−15 in the experiment on TNFα (Donor 2, Conc. 66 μM (baseline)); 2.919 with TNFα (Donor 2, Conc. 1328 μM); 10.26 in the experiment on TNFα (Donor 2, Conc. 3320 μM); 19.26 in the experiment on TNFα (Donor 2, Conc. 6639 μM). Moreover, the “Donor 3 TNFa Measurements Mean” value in the experiment on TNFα (Donor 3, Conc. 66 μM (baseline)) was −2.4E−15; in the experiment on TNFα (Donor 3, Conc. 1328 μM) it was −6.23; with TNFα (Donor 3, Conc. 3320 μM) it was 3.309; in the experiment on TNFα (Donor 3, Conc. 6639 μM), −1.66. The “LPS-induced TNFα secretion” value with TNFα (Donor 2) is “increased”.
